For eight compounds, GI50 and TGI results are on record in PubChem BioAssay (NCI).

Test systems include HCC-2998 colon; M14 melanoma; DU-145 prostate; MDA-MB-435; SW-620 colon; HL-60(TB) leukemia; 786-0 renal; K-562 leukemia; COLO 205 colon; LOX IMVI melanoma.
Holding throughout (assay): growth of human tumour cells (NCI), 48 h

“And” between values parts separate entries of the source, which are not always exact repeats. Identical values can stand only once.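 Each compound was tested at five concentrations against cells in 96-well plates for 48 hours. GI50: concentration for 50% inhibition of growth. TGI marks complete inhibition of growth.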

With `CCCCCCCC/C=C/CCCCCCCC1=NC(C)(C)CN1CCO`, the GI50 in the test on HCC-2998 colon was 1.7 µM; in the test on M14 melanoma it was 1.74 µM; in the test with DU-145 prostate, 1.72 µM; in the test on MDA-MB-435 it was 1.73 µM; in the test on SW-620 colon, 1.73 µM; with HL-60(TB) leukemia it was 1.74 µM. The GI50 is 1.73 µM in the test with 786-0 renal, 1.3 µM in the test with K-562 leukemia, 1.66 µM with COLO 205 colon and 1.55 µM with LOX IMVI melanoma. The TGI with HCC-2998 colon amounted to 3.1 µM; in the test on M14 melanoma, 3.21 µM; in the test on DU-145 prostate it was 3.09 µM; in the test on MDA-MB-435, 3.41 µM; in the test with SW-620 colon it was 3.37 µM; with HL-60(TB) leukemia, 3.81 µM. Also, the TGI with 786-0 renal worked out at 3.14 µM; with K-562 leukemia, 3.02 µM; in the test on COLO 205 colon it was 3.11 µM; in the test on LOX IMVI melanoma it was 2.95 µM.
On to `CC(=O)c1cc(C(=O)c2ccc3c(c2)Sc2ccccc2N3)n2ccccc12`, for which the GI50 is 0.0199 µM and 0.0295 µM in the test on HCC-2998 colon; 0.00338 µM and 0.00332 µM in the test on M14 melanoma; 0.00514 µM and 0.00332 µM with DU-145 prostate; 0.0018 µM and < 0.00332 µM in the test with MDA-MB-435; 0.00363 µM and 0.00332 µM in the test on SW-620 colon; 0.00237 µM in the test on HL-60(TB) leukemia. The GI50 in the test on 786-0 renal was 0.00459 µM; in the test on K-562 leukemia, 0.00385 µM and 0.00332 µM; in the test with COLO 205 colon, 0.00327 µM and 0.00332 µM; in the test on LOX IMVI melanoma, 0.00587 µM and 0.00332 µM. The TGI is over 33.2 µM with HCC-2998 colon; over 33.2 µM with M14 melanoma; over 33.2 µM in the test with DU-145 prostate; 0.00453 µM and < 0.00332 µM in the test with MDA-MB-435; over 33.2 µM with SW-620 colon; 0.0056 µM with HL-60(TB) leukemia. In addition, the TGI is over 33.2 µM in the test with K-562 leukemia; 0.0213 µM and 0.00993 µM in the test with COLO 205 colon; over 33.2 µM in the test with LOX IMVI melanoma.
As to `CCOC(=O)C(C#N)C1=CC(=O)C(=O)c2ccc(O)cc21` (centres undefined), the TGI in the test with HCC-2998 colon was over 100 µM; in the test with M14 melanoma, 51.3 µM; in the test on DU-145 prostate, over 100 µM; in the test with MDA-MB-435, 39.9 µM; in the test with SW-620 colon it was over 100 µM; in the test with HL-60(TB) leukemia, over 100 µM. Moreover, the TGI with 786-0 renal, in the test with K-562 leukemia, with COLO 205 colon and in the test with LOX IMVI melanoma was over 100 µM throughout.
Regarding `CSc1nc2c(c(=O)n1C)CN(C1CCCCC1)C(=O)C(c1ccccc1)N2` (centres undefined), the GI50 was 35.9 µM in the test on HCC-2998 colon; 43.5 µM with M14 melanoma; 64.4 µM with DU-145 prostate; 19.1 µM in the test on MDA-MB-435; 38.5 µM in the test with SW-620 colon; 17.5 µM in the test on HL-60(TB) leukemia. The GI50 was 68.3 µM in the test with 786-0 renal, 4 µM with K-562 leukemia, 30.9 µM in the test on COLO 205 colon and 17.1 µM with LOX IMVI melanoma. The TGI with HCC-2998 colon is over 100 µM; with M14 melanoma, over 100 µM; in the test with DU-145 prostate it was over 100 µM; in the test on MDA-MB-435 it was over 100 µM; in the test on SW-620 colon it was over 100 µM; in the test with HL-60(TB) leukemia, 67.5 µM. Also, the TGI in the test with 786-0 renal, in the test on K-562 leukemia, in the test with COLO 205 colon and in the test on LOX IMVI melanoma was over 100 µM each time.
As for `c1ccc(CNCCN(CCNCc2ccccn2)Cc2ccc3ccccc3c2)nc1`, the GI50 was 1.83 µM with HCC-2998 colon; 1.64 µM in the test with M14 melanoma; 2.79 µM in the test on DU-145 prostate; 1.99 µM in the test on MDA-MB-435; 2.36 µM in the test with SW-620 colon; 2.4 µM with HL-60(TB) leukemia. In addition, the GI50 with 786-0 renal was 2.34 µM; in the test with K-562 leukemia it was 2.97 µM; in the test with COLO 205 colon it was 2.27 µM; in the test with LOX IMVI melanoma, 2 µM. Moreover, the TGI in the test on HCC-2998 colon was 3.39 µM; with M14 melanoma, 3.39 µM; in the test with DU-145 prostate it was 10.3 µM; in the test with MDA-MB-435 it was 4.08 µM; in the test with SW-620 colon, 6.32 µM; in the test on HL-60(TB) leukemia, 5.77 µM. The TGI in the test with 786-0 renal was found to be 8.15 µM; in the test with K-562 leukemia, 8.73 µM; with COLO 205 colon, 4.57 µM; with LOX IMVI melanoma it was 4.5 µM.
On to `COC(=O)c1oc2c(C(=O)/C=C/c3ccc(OC)cc3)c(OCCN(C)C)ccc2c1C`, for which the GI50 in the test on HCC-2998 colon is 10.2 µM; with M14 melanoma it was 10.6 µM; in the test on DU-145 prostate, 2.82 µM; with MDA-MB-435, 4.57 µM; in the test on SW-620 colon it was 2.4 µM; with HL-60(TB) leukemia, 1.88 µM. In addition, the GI50 was 9.4 µM in the test on 786-0 renal, 2.24 µM in the test on K-562 leukemia, 4.59 µM with COLO 205 colon and 4.52 µM with LOX IMVI melanoma. For the same compound, the TGI in the test with HCC-2998 colon was determined as 24.6 µM; in the test with M14 melanoma it was 25.5 µM; in the test on DU-145 prostate, 10.7 µM; in the test with MDA-MB-435 it was 16.3 µM; in the test on SW-620 colon it was 7.43 µM; with HL-60(TB) leukemia it was 6.01 µM. Also, the TGI in the test with 786-0 renal came out at 22.3 µM; in the test with K-562 leukemia, 8.49 µM; in the test on COLO 205 colon, 19.3 µM; with LOX IMVI melanoma, 17 µM.
As to `Cc1cc(Nc2nc(N[C@@H](C)c3ncc(F)cn3)ncc2Cl)n[nH]1`, the GI50 in the test on HCC-2998 colon was 38.7 µM; with M14 melanoma, 20.7 µM; in the test with DU-145 prostate, 40.8 µM; in the test with MDA-MB-435 it was 28.1 µM; with SW-620 colon, 22.6 µM; with HL-60(TB) leukemia, 29.9 µM. Besides, the GI50 is 23.6 µM in the test on 786-0 renal, 32.2 µM in the test on K-562 leukemia, 17.8 µM in the test on COLO 205 colon and 13.8 µM in the test with LOX IMVI melanoma. In addition, the TGI in the test with HCC-2998 colon, with M14 melanoma, with DU-145 prostate, with MDA-MB-435, with SW-620 colon and in the test on HL-60(TB) leukemia was over 100 µM throughout. The TGI in the test with 786-0 renal was over 100 µM; in the test on K-562 leukemia, over 100 µM; in the test with COLO 205 colon it was 48.9 µM; in the test on LOX IMVI melanoma it was over 100 µM.
Regarding `CC(=O)NNc1nc(C)c(C(/C=C/c2ccccc2O)=N/N=C(N)N)s1`, the TGI with HCC-2998 colon, in the test with M14 melanoma, in the test with DU-145 prostate, in the test with MDA-MB-435, in the test with SW-620 colon and in the test with HL-60(TB) leukemia was over 100 µM each time. Further, the TGI with 786-0 renal, with K-562 leukemia, with COLO 205 colon and in the test on LOX IMVI melanoma was over 100 µM each time.
